We go through twelve molecules from ChEMBL document CHEMBL1201862, “PubChem BioAssay data set” (2004).

Test systems include 786-0; A498; COLO 205; HCC 2998; HT-29; K562; M14; NCI-H460; OVCAR-5; RXF 393; SNB-75; SNB-78; SR; U-251; UACC-62; ACHN; SK-MEL-28; MCF7; NCI/ADR-RES; T47D.
What all share (test): inhibition of tumour cell growth, NCI panel, 48 h

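Tested at 5 concentrations; 48 h exposure; 96-well plates; endpoints linearly interpolated, else capped at highest concentration. GI50 = concentration required for 50% inhibition of growth.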 The source made the active and inactive calls. Rule as the data show it: active = GI50 up to about 1.1 µM and inactive = higher.

For the molecule `Cc1c(/C=C2\CC/C(=C\c3[nH]c(C(=O)OC(C)(C)C)c(C)c3C)C2=O)[nH]c(C(=O)OC(C)(C)C)c1C`, the GI50 with 786-0, with A498, with COLO 205, with HCC 2998, in the assay with HT-29 and in the assay with K562 was > 100 µM (inactive) throughout. In addition, the GI50 is > 100 µM (inactive) in the assay with M14; > 100 µM (inactive) in the assay on NCI-H460; > 100 µM (inactive) in the assay with OVCAR-5; > 100 µM (inactive) with RXF 393; 60.1 µM (inactive) in the assay with SNB-75; > 100 µM (inactive) in the assay with SNB-78. Besides, the GI50 in the assay with SR, in the assay on U-251 and in the assay on UACC-62 was > 100 µM (inactive) throughout.

As to `c1ccc2c(CNCCCCCCCCCCCCNCc3cccc4ccccc34)cccc2c1`, the GI50 was 1.81 µM (inactive) in the assay on 786-0; 6.08 µM (inactive) with A498; 1.91 µM (inactive) with ACHN; > 100 µM (inactive) with COLO 205; 1.64 µM (inactive) in the assay on HT-29; 0.467 µM (active) in the assay on K562. Besides, the GI50 in the assay on M14 was 1.85 µM (inactive); with NCI-H460, 1.53 µM (inactive); in the assay on OVCAR-5, 1.54 µM (inactive); in the assay on RXF 393 it was 1.36 µM (inactive); with SK-MEL-28, 1.95 µM (inactive); with SNB-75 it was 1.79 µM (inactive). Also, the GI50 was 1.9 µM (inactive) in the assay on SNB-78, 1.11 µM (active) with SR, 1.77 µM (inactive) in the assay on U-251 and 1.82 µM (inactive) with UACC-62.

For the molecule `CC1(C)CC(c2c[nH]c3ccccc23)=CC2=Nc3ccccc3C21O` (configuration not stated), the GI50 in the assay on 786-0 was 43.7 µM (inactive); in the assay on A498, > 100 µM (inactive); in the assay on ACHN, > 100 µM (inactive); in the assay with COLO 205, > 100 µM (inactive); in the assay on HT-29 it was 59.4 µM (inactive); in the assay on K562, 91.6 µM (inactive). For the same molecule, the GI50 was > 100 µM (inactive) with M14; > 100 µM (inactive) in the assay on NCI-H460; > 100 µM (inactive) in the assay on OVCAR-5; 37.8 µM (inactive) in the assay with RXF 393; 16.4 µM (inactive) in the assay on SK-MEL-28; 5.94 µM (inactive) in the assay with SNB-75. Also, the GI50 in the assay on SNB-78 is 76 µM (inactive); in the assay on U-251 it was 33.2 µM (inactive); with UACC-62 it was > 100 µM (inactive).

`COC(OC)c1cccc2c1C(=O)CCC1(CC2)OCCCCO1`: the GI50 in the assay on 786-0, in the assay with A498, in the assay on ACHN, in the assay on COLO 205, with HCC 2998 and in the assay with HT-29 was > 100 µM (inactive) throughout. In addition, the GI50 in the assay on K562, in the assay on M14, in the assay with NCI-H460, in the assay with OVCAR-5, with RXF 393 and in the assay on SK-MEL-28 was > 100 µM (inactive) each time. In addition, the GI50 in the assay on SNB-75, in the assay on SNB-78, in the assay on U-251 and in the assay with UACC-62 was > 100 µM (inactive) throughout.

Regarding `CC(=O)NNc1nc(C)c(C(=O)NNC(=O)C(=O)Nc2ccc(Cl)cc2Cl)s1`, the GI50 is 40.7 µM (inactive) with 786-0; 29.2 µM (inactive) with ACHN; 35.9 µM (inactive) in the assay on COLO 205; 40.6 µM (inactive) in the assay on HCC 2998; 48.5 µM (inactive) in the assay on HT-29; 21 µM (inactive) in the assay on K562. The GI50 with M14 is 42.5 µM (inactive); with NCI-H460, > 10 µM (inactive); with OVCAR-5, 55.1 µM (inactive); in the assay on SK-MEL-28 it was 39.9 µM (inactive); with SNB-78 it was 36.6 µM (inactive); in the assay with U-251, 31.1 µM (inactive). In addition, in the assay on UACC-62, the GI50 was 25.2 µM (inactive).

On to `Cc1c(C(=O)C/C(=N/NC(=O)c2ccccc2O)C(=O)Nc2ccccc2C(C)C)[n+]([O-])c2ccccc2[n+]1[O-]`, for which the GI50 was 49.7 µM (inactive) in the assay on 786-0; > 100 µM (inactive) with A498; 36.6 µM (inactive) with ACHN; 31.7 µM (inactive) in the assay with COLO 205; 52.5 µM (inactive) in the assay on HCC 2998; 43.6 µM (inactive) in the assay on HT-29. The GI50 was 33.7 µM (inactive) in the assay on K562; 31 µM (inactive) with M14; 31.2 µM (inactive) in the assay on NCI-H460; > 100 µM (inactive) in the assay with OVCAR-5; 75.3 µM (inactive) in the assay with RXF 393; 69.7 µM (inactive) with SK-MEL-28. For the same molecule, the GI50 with SNB-75 is > 100 µM (inactive); with SNB-78 it was 84.7 µM (inactive); in the assay with U-251 it was 45 µM (inactive); with UACC-62, 20 µM (inactive).

In the case of `COc1cc([C@@H]2c3cc4c(cc3[C@@H](NC(=O)c3ccc(OC(C)=O)cc3)C3COC(=O)[C@@H]32)OCO4)cc(OC)c1O` (some centres not stated), the GI50 in the assay with 786-0 is 1.22 µM (inactive); in the assay with A498 it was 2.22 µM (inactive); in the assay with ACHN, 0.689 µM (active); in the assay on COLO 205 it was 10.2 µM (inactive); with HCC 2998, 3.27 µM (inactive); in the assay on HT-29, 5.01 µM (inactive). For the same molecule, the GI50 in the assay with K562 was 2.17 µM (inactive); in the assay with M14 it was 2.56 µM (inactive); in the assay on NCI-H460 it was 0.03 µM (active); in the assay on OVCAR-5 it was 4.36 µM (inactive); with RXF 393, 11.4 µM (inactive); in the assay on SK-MEL-28 it was 3.48 µM (inactive). In addition, the GI50 in the assay with SNB-75 was 1.48 µM (inactive); with SNB-78, 19.8 µM (inactive); in the assay on U-251, 0.308 µM (active); in the assay with UACC-62, 0.547 µM (active).

For `Cc1cccc(N2C(=O)C(=O)C(c3nc4ccccc4s3)C(=O)C2=O)c1C`, the GI50 in the assay on 786-0, with A498, in the assay with ACHN, in the assay with COLO 205, with HCC 2998 and with HT-29 was > 100 µM (inactive) throughout. Moreover, the GI50 in the assay on K562, in the assay with M14, with OVCAR-5, with SK-MEL-28, with SNB-75 and in the assay on SNB-78 was > 100 µM (inactive) each time. Besides, the GI50 in the assay on SR, in the assay with U-251 and in the assay on UACC-62 was > 100 µM (inactive) each time.

Turning to `Cc1c2ccnc(O)c2cc2c(=O)c3cnccc3[nH]c12`, the GI50 in the assay on 786-0, in the assay on A498, with ACHN, in the assay with COLO 205, in the assay on HCC 2998 and with HT-29 was > 100 µM (inactive) each time. Moreover, the GI50 in the assay on K562, in the assay on M14, with NCI-H460, in the assay with OVCAR-5, in the assay on RXF 393 and in the assay with SK-MEL-28 was > 100 µM (inactive) throughout. The GI50 with SNB-75, with SNB-78, in the assay with U-251 and in the assay on UACC-62 was > 100 µM (inactive) throughout.

With `CC(=O)/C(=N\O)C(=O)Nc1ccc(Cl)cc1Cl`, the GI50 with 786-0, with A498, in the assay on ACHN, in the assay with COLO 205, with HCC 2998 and in the assay on HT-29 was > 100 µM (inactive) each time. In addition, the GI50 in the assay on K562, in the assay on M14, in the assay on NCI-H460, in the assay on OVCAR-5, in the assay on RXF 393 and in the assay on SK-MEL-28 was > 100 µM (inactive) in each case. Moreover, the GI50 in the assay on SNB-75, in the assay with SNB-78, with U-251 and with UACC-62 was > 100 µM (inactive) in each case.

In the case of `C[C@H](OC(=O)/C=C/c1ccc(O)c(O)c1)[C@H](C)OC(=O)/C=C/c1ccc(O)c(O)c1`, the GI50 in the assay on 786-0 is 4.73 µM (inactive); with A498, 17.1 µM (inactive); in the assay on ACHN, 6.11 µM (inactive); with COLO 205, 20.3 µM (inactive); in the assay with HCC 2998, 11.5 µM (inactive); in the assay with HT-29, 12.2 µM (inactive). The GI50 in the assay with K562 was 4.61 µM (inactive); in the assay with M14, 6.19 µM (inactive); in the assay with MCF7, 6.28 µM (inactive); with NCI-H460 it was 4.11 µM (inactive); with NCI/ADR-RES, 12.2 µM (inactive); with OVCAR-5, 14 µM (inactive). Also, the GI50 was 6.87 µM (inactive) with RXF 393; 11.5 µM (inactive) in the assay with SK-MEL-28; 15.7 µM (inactive) in the assay with SNB-75; 8.18 µM (inactive) in the assay with SR; 4.41 µM (inactive) with T47D; 10.8 µM (inactive) in the assay with U-251. Also, the GI50 in the assay with UACC-62 is 2.93 µM (inactive).

`CC(C)(Oc1ccc(Cl)cc1)C(=O)N(C(=O)N1CCC(c2ccccc2)CC1)c1ccccc1`: the GI50 with 786-0 was > 100 µM (inactive); in the assay with A498, > 82.8 µM (inactive); with ACHN it was 40.6 µM (inactive); with COLO 205, 10 µM (inactive); with HCC 2998 it was 41.4 µM (inactive); with HT-29 it was 22.5 µM (inactive). Also, the GI50 in the assay on K562 was 4.2 µM (inactive); in the assay on M14, 65 µM (inactive); with MCF7, 23.7 µM (inactive); in the assay on NCI-H460 it was 16 µM (inactive); in the assay with NCI/ADR-RES, > 29.6 µM (inactive); in the assay with OVCAR-5, > 100 µM (inactive). Also, the GI50 in the assay with RXF 393 was 13.6 µM (inactive); in the assay with SK-MEL-28, > 100 µM (inactive); in the assay on SNB-75, > 26.1 µM (inactive); in the assay on SR it was > 100 µM (inactive); with T47D it was 7 µM (inactive); in the assay on U-251, > 25.2 µM (inactive). Also, the GI50 in the assay on UACC-62 was > 57.5 µM (inactive).
